Consider six compounds from ChEMBL document CHEMBL1121882, “Approaches to vasodilating/beta-adrenergic blocking agents: examples of the dihydrolutidine type” (1981).

For test [1], the system named is Rattus norvegicus. Put plainly: Compound was tested for effect on arterial pressure in spontaneously hypertensive rats (SHR) at 5 mg/kg, po. It is filed as functional, Artery.
For test [2], the system named is Rattus norvegicus. Put plainly: Compound was tested for effect on arterial pressure in spontaneously hypertensive rats (SHR) at 1.25 mg/kg, po. The format is functional, Artery.
For test [3], the system named is Rattus norvegicus. Kind of test: Compound was tested for effect on arterial pressure in spontaneously hypertensive rats (SHR) at 20 mg/kg administered intraperitoneally; Death. It is filed as functional, organism-based. On the set-up: dose 20 mg/kg. The note with it: Artery.
The test system of test [4] is Rattus norvegicus. Put plainly: Compound was tested for effect on arterial pressure in spontaneously hypertensive rats (SHR) at 20 mg/kg, po. It is filed as functional, Artery.
The subject of test [5] is Rattus norvegicus. Kind of test: Compound was tested for effect on arterial pressure in spontaneously hypertensive rats (SHR) at 20 mg/kg administered intraperitoneally. Conditions: route intraperitoneal. It is filed as functional, Artery.

Each structure is given as a SMILES string.

In the case of `CC(C)NCC(O)COc1cccc2ccccc12` (stereo not given) [PROPRANOLOL], in the test on Rattus norvegicus [1], the “Max fall in MAP” value is 7 mmHg. `CC(C)(C)NC[C@H](O)COc1nsnc1N1CCOCC1` [TIMOLOL]: the “Max fall in MAP” value in the test with Rattus norvegicus [2] was -1 mmHg. Turning to `CCOC(=O)C1=C(C)N=C(C)/C(=C(/O)OCC)C1c1ccc(OCC(O)CNC(C)(C)C)cc1C` (stereo not given), the “Max fall in MAP” value with Rattus norvegicus [3] was “Death”; in the test on Rattus norvegicus [1], 42 mmHg; in the test on Rattus norvegicus [2] it was 12 mmHg. With `CCOC(=O)C1=C(C)N=C(C)/C(=C(/O)OCC)C1c1ccc(OCC(O)CNC(C)(C)C)cc1` (stereo not given), the “Max fall in MAP” value in the test with Rattus norvegicus [3] is “Death”; in the test with Rattus norvegicus [1] it was 17 mmHg.

As for `CCOC(=O)C1=C(C)N=C(C)/C(=C(/O)OCC)C1c1ccccc1OCC(O)CNC(C)(C)C` (stereo not given), the figures for the “Max fall in MAP” value in the test on Rattus norvegicus [4] and in the test with Rattus norvegicus [5] were 16 mmHg and 15 mmHg, respectively. Take `CCOC(=O)C1=C(C)N=C(C)/C(=C(/O)OCC)C1c1ccccc1C(F)(F)F` (stereo not given): the “Max fall in MAP” value in the test with Rattus norvegicus [1] is given as 41 mmHg.
